# Data as given in PMC9667936, “Functional mapping of the 14-3-3 hub protein as a guide to design 14-3-3 molecular glues” (Chemical Science, 2022).
# Where a SMILES comes first, the peptide text is derived from it. [ ]: non-standard residue; d: D form. The star is where a group is joined. ξ: configuration not given here. FITC = O=C1OC2(c3ccc(O)cc3Oc3cc(O)ccc32)c2ccc(NC(=S)*)cc21; Phe(4-NO2) = N[C@@H](Cc1ccc([N+](=O)[O-])cc1)C(=O)O; ξAla(4-thiazolyl) = NC(Cc1cscn1)C(=O)O; pS = N[C@@H](COP(=O)(O)O)C(=O)O; Nva = CCC[C@H](N)C(=O)O; AEA = NCCOCC(=O)O
# Molecular target: T1, 14-3-3γ (Homo sapiens, UniProt P61981)
# T1 construct: made in house; host or cells: E. coli NiCo21 (DE3)
# T1 sequence (P61981 1-247): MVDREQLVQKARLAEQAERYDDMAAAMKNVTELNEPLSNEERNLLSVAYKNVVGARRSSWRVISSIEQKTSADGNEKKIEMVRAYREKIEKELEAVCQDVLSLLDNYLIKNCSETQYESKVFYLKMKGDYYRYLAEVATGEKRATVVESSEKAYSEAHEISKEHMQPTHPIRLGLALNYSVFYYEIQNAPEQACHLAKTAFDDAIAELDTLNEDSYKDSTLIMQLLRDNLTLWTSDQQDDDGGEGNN
# Assay: Fluorescence anisotropy (FA) binary binding study: 14-3-3 titrated to fluorescein-labelled peptide
# Settings: for Fold change to previous / ΔG / ΔΔG (to previous): Table S3
# Method: 14-3-3γ protein expression (FP/ITC experiments)
# (§1) A pPROEX HTb expression vector encoding the human 14-3-3 protein gamma (14-3-3γ) with an N-terminal his6-tag was transformed by heat shock into NiCo21 (DE3) competent cells. Single colonies were cultured in 50 mL LB medium (100 µg/mL ampicillin). After overnight incubation at 37 °C, cultures were transferred to 2 L TB media (100 µg/mL ampicillin, 1 mM MgCl2) and incubated at 37 °C until an OD600 nm of 0.8-1.2 was reached. Protein expression was then induced with 0.4 mM isopropyl-β-d-thiogalactoside (IPTG), and cultures were incubated overnight at 18 °C. Cells were harvested by centrifugation (8600 rpm, 20 minutes, 4 °C) and resuspended in lysis buffer (50 mM Hepes, pH 8.0, 300 mM NaCl, 12.5 mM imidazole, 5 mM MgCl2, 2 mM βME) containing cOmplete™ EDTA-free Protease Inhibitor Cocktail tablets (1 tablet/100 ml lysate) and benzonase (1 µl/100 ml). After lysis using a C3 Emulsiflex-C3 homogenizer (Avestin), the cell lysate was cleared by centrifugation (20000 rpm, 30 minutes, 4 °C) and purified using Ni2+-affinity chromatography (Ni-NTA superflow cartridges, Qiagen).
# Typically two 5 mL columns (flow 5 mL/min) were used for a 2 L culture in which the lysate was loaded on the column washed with 10 CV wash buffer (50 mM Hepes, pH 8.0, 300 mM NaCl, 25 mM imidazole, 2 mM βME) and eluted in several fractions (2-4 CV) of elution buffer (50 mM Hepes, pH 8.0, 300 mM NaCl, 250 mM imidazole, 2 mM βME). Fractions containing the 14-3-3 protein were combined and dialyzed into 25 mM HEPES pH 8.0, 100 mM NaCl, 10 mM MgCl2, 500 µM TCEP. Finally, the protein was concentrated to ∼60 mg/mL, analyzed Q-Tof LC/MS, and aliquots were flash-frozen for storage at […]
# as §1, with “sigma truncated after T231 (14-3-3σΔc) and” for “gamma (14-3-3γ)”, “tablet/ 100” for “tablet/100”, “µl/ 100” for “µl/100”, “ml).” for “ml). After lysis using a C3 Emulsiflex-C3 homogenizer (Avestin), the cell lysate was cleared by centrifugation (20000 rpm, 30 minutes, 4 °C) and purified using Ni2+-affinity chromatography (Ni-NTA superflow cartridges, Qiagen).”
# After lysis using a C3 Emulsiflex-C3 homogenizer (Avestin), the cell lysate was cleared by centrifugation (20000 rpm, 30 minutes, 4 °C) and purified using Ni2+-affinity chromatography (Ni-NTA superflow cartridges, Qiagen). Typically two 5 mL columns were used for a 2 L culture in which the lysate was loaded on the column washed with 10 CV wash buffer (50 mM Hepes, pH 8.0, 300 mM NaCl, 25 mM imidazole, 2 mM βME) and eluted with several fractions (2-4 CV) of elution buffer (50 mM Hepes, pH 8.0, 300 mM NaCl, 250 mM imidazole, 2 mM βME). Fractions containing the 14-3-3 protein were combined and dialyzed into 25 mM HEPES pH 8.0, 200 mM NaCl, 10 mM MgCl2, 2 mM βME. In addition, 1 mg TEV was added for each 100 mg purified protein to remove the purification tag. The cleaved sample was then again loaded on a 10 mL Ni-NTA column to separate the cleaved product from the expression tag and residual uncleaved protein. The flowthrough was loaded on a Superdex 75 pg 16/60 size exclusion column (GE Life Sciences) using 25 mM HEPES, 100 mM NaCl, 10 mM MgCl2, 500 μM TCEP (adjusted to pH=8.0) as running buffer. Fractions containing the 14-3-3 protein were pooled and concentrated to ∼60 mg/mL, analyzed Q-Tof LC/MS, and aliquots were flash-frozen for storage at −80 […]
# The peptides 1 and 2a-d were synthesized on 50 µmol scale on a Rink amide MBHA resin […]
# [1] = FA KD of peptide divided by KD of previous (one amino acid longer) peptide, mean of n = 3
# [2] = KD / KD of previous peptide, replicate 1
# [3] = KD / KD of previous peptide, replicate 2
# [4] = KD / KD of previous peptide, replicate 3
# [5] = calculated from FA KD, mean of n = 3
# [6] = ΔG minus ΔG of previous peptide, FA, replicate 1
# [7] = ΔG minus ΔG of previous peptide, FA, replicate 2
# [8] = ΔG minus ΔG of previous peptide, FA, replicate 3
# [9] = ΔG of peptide minus ΔG of previous (one amino acid longer) peptide, FA, mean of n = 3
smiles,measurement,setting,value
CCC[C@H](NC(=O)[C@@H](CCCCN)NC(=O)COCCNC(=S)Nc1ccc2c(c1)C(=O)OC21c2ccc(O)cc2Oc2cc(O)ccc21)C(=O)N[C@@H](Cc1ccc([N+](=O)[O-])cc1)C(=O)NC(Cc1cscn1)C(=O)N[C@@H](COP(=O)(O)O)C(=O)N[C@@H](Cc1ccc([N+](=O)[O-])cc1)C(N)=O (stereo partly shown) [2h] ({FITC-AEA}-[dK][Nva][Phe(4-NO2)][ξAla(4-thiazolyl)][pS][Phe(4-NO2)]-NH2),individual ΔΔG of removed residue,"FA, ΔG relative to the previously truncated peptide",0.6 kcal/mol
same,Fold change to previous,[1],"2,92"
same,Fold change to previous,[2],"2,91"
same,Fold change to previous,[3],"2,67"
same,Fold change to previous,[4],"3,19"
same,ΔG,[5],"-7,04 kcal/mol"
same,ΔG,"from FA KD, replicate 1","-7,08 kcal/mol"
same,ΔG,"from FA KD, replicate 2","-7,00 kcal/mol"
same,ΔG,"from FA KD, replicate 3","-7,04 kcal/mol"
same,ΔΔG (to previous),[6],"0,63 kcal/mol"
same,ΔΔG (to previous),[7],"0,58 kcal/mol"
same,ΔΔG (to previous),[8],"0,69 kcal/mol"
same,ΔΔG (to previous),[9],"0,63 kcal/mol"
CCC[C@H](NC(=O)[C@@H](CCCCN)NC(=O)COCCNC(=S)Nc1ccc2c(c1)C(=O)OC21c2ccc(O)cc2Oc2cc(O)ccc21)C(=O)N[C@@H](Cc1ccc([N+](=O)[O-])cc1)C(=O)NC(Cc1cscn1)C(=O)N[C@@H](COP(=O)(O)O)C(N)=O (stereo partly shown) [2i] ({FITC-AEA}-[dK][Nva][Phe(4-NO2)][ξAla(4-thiazolyl)][pS]-NH2),fold change in binding affinity on truncation,FA KD relative to the previous (one amino acid longer) peptide,four-fold
same,cumulative ΔΔG of truncating the entire N- or C-terminus,"FA, relative to peptide 1 (2d: entire N-terminus; 2i: entire C-terminus)",4.3 kcal/mol
same,"ΔΔG C-term (cumulative, whole C-terminus removed)","Table S3, C-term = 2i relative to 1, FA, mean of n = 3","4,31 kcal/mol"
same,ΔΔG C-term (cumulative),"Table S3, C-term = 2i relative to 1, FA, replicate 1","4,39 kcal/mol"
same,ΔΔG C-term (cumulative),"Table S3, C-term = 2i relative to 1, FA, replicate 2","4,30 kcal/mol"
same,ΔΔG C-term (cumulative),"Table S3, C-term = 2i relative to 1, FA, replicate 3","4,23 kcal/mol"
same,Fold change to previous,[1],"4,04"
same,Fold change to previous,[2],"4,23"
same,Fold change to previous,[3],"3,56"
same,Fold change to previous,[4],"4,33"
same,ΔG,[5],"-6,22 kcal/mol"
same,ΔG,"from FA KD, replicate 1","-6,22 kcal/mol"
same,ΔG,"from FA KD, replicate 2","-6,25 kcal/mol"
same,ΔG,"from FA KD, replicate 3","-6,18 kcal/mol"
same,ΔΔG (to previous),[6],"0,85 kcal/mol"
same,ΔΔG (to previous),[7],"0,75 kcal/mol"
same,ΔΔG (to previous),[8],"0,87 kcal/mol"
same,ΔΔG (to previous),[9],"0,82 kcal/mol"
